Laboratory results: ChEMBL document CHEMBL1909046, “DrugMatrix in vitro pharmacology data”

Assays:
[1] = DRUGMATRIX: GABAA, Muscimol, Central radioligand binding (ligand: [3H] Muscimol); assay type: cell membranes, Rattus norvegicus, Wistar, Brain, Membrane; settings: Not Active = under 50% inhibition at 10 µM
[2] = target: cGMP-specific 3',5'-cyclic phosphodiesterase (Homo sapiens, UniProt O76074); experiment: DRUGMATRIX: Phosphodiesterase PDE5 enzyme inhibition (substrate: [3H]cGMP + cGMP); assay type: tissue-based, Platelet; settings: platelet; Not Active = under 50% inhibition at 10 µM
[3] = DRUGMATRIX: Potassium Channel [KATP] radioligand binding (ligand: [3H] Glyburide); assay type: cell membranes, Membrane; settings: hit-t15; Not Active = under 50% inhibition at 10 µM
Neutrophil elastase = target: T1, Neutrophil elastase (Homo sapiens, UniProt P08246); assay type: tissue-based;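 further: inhibition of neutrophil elastase enzyme activity, measured with a p-nitroanilide-linked peptide substrate; in other assays of this panel Not Active means under 50% inhibition at 10 µM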
T1 sequence (P08246 whole entry): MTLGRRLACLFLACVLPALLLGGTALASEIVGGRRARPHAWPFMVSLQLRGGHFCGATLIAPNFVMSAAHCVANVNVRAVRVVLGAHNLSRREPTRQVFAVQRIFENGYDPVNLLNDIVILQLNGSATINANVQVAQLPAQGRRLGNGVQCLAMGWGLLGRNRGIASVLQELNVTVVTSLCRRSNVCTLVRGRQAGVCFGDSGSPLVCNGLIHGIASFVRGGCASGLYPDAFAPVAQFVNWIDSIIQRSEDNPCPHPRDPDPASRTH

Adenosine receptor A1 = target: T2, Adenosine receptor A1 (Homo sapiens, UniProt P30542); assay type: cell membranes, CHO, Membrane; settings: cho;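 further: radioligand binding assay at the adenosine A1 receptor, with DPCPX serving as the labelled ligand; in other assays of this panel Not Active means under 50% inhibition at 10 µM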
T2 sequence (P30542 whole entry): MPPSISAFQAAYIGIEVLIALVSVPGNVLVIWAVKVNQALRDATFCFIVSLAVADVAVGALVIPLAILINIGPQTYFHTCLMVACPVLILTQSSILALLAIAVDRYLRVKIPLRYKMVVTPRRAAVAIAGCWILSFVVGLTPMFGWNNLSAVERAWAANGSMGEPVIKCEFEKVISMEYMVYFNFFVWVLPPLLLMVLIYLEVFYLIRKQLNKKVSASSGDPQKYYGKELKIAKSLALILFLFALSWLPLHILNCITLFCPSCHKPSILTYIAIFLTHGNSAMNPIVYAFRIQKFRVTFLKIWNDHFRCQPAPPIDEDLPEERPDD

Adenosine receptor A2a = Adenosine receptor A2a (Homo sapiens, UniProt P29274); experiment: DRUGMATRIX: Adenosine A2A radioligand binding (ligand: […]); assay type: cell membranes, HEK293, Membrane; settings: Not Active = under 50% inhibition at 10 µM
Chain of Adenosine receptor A2a (P29274 whole entry): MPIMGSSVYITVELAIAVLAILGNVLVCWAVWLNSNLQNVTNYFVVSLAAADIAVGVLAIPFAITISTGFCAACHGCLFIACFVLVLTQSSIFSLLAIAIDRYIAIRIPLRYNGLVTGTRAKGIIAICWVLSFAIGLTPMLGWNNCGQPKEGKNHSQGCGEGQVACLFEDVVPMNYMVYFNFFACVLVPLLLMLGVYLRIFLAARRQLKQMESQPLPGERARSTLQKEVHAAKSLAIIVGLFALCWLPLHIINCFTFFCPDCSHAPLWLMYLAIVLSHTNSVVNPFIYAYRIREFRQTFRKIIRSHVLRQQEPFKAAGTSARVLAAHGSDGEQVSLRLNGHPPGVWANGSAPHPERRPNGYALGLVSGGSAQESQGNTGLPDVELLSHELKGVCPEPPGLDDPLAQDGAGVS

Cytochrome P450 2E1 = Cytochrome P450 2E1 (Homo sapiens, UniProt P05181); settings: bti-tn-5b1-4; further: in other assays of this panel Not Active means under 50% inhibition at 10 µM
Chain of Cytochrome P450 2E1 (P05181 whole entry): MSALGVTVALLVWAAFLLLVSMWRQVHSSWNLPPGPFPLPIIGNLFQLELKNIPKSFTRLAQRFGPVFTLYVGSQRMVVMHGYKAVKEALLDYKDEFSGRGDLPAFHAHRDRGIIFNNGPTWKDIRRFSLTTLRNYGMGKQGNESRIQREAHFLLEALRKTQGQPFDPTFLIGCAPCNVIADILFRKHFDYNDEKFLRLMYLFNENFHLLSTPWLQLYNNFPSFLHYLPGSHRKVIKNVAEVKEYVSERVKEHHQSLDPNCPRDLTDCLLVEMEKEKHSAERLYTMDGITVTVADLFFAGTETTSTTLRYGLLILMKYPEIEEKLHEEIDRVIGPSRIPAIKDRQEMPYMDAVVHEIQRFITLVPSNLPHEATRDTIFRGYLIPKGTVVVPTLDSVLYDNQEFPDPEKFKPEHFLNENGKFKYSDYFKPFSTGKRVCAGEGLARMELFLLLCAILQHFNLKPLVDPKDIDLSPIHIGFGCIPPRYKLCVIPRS

| SMILES | IC50 [1] | Ki [1] | IC50 [2] | IC50 [3] | Ki [3] | IC50 (Neutrophil elastase) | IC50 (Adenosine receptor A1) | IC50 (Adenosine receptor A2a; hek293) | IC50 (Cytochrome P450 2E1) | Ki (Cytochrome P450 2E1) | IC50 (Adenosine receptor A2a; read-out: IC50) [µM] | Ki (Adenosine receptor A2a; read-out: Ki) [µM] |
| --- | --- | --- | --- | --- | --- | --- | --- | --- | --- | --- | --- | --- |
| Nc1ccc(C(=O)O)c(O)c1 [AMINOSALICYLIC ACID] | Not Active | Not Active | Not Active | Not Active | Not Active | Not Active | Not Active | Not Active | Not Active | Not Active | – | – |
| Nc1nc(N)c2nc(CNc3ccc(C(=O)N[C@@H](CCC(=O)O)C(=O)O)cc3)cnc2n1 [AMINOPTERIN] | Not Active | Not Active | Not Active | Not Active | Not Active | Not Active | Not Active | Not Active | Not Active | Not Active | – | – |
| c1ccc(Cn2ccnc2)cc1 | Not Active | Not Active | Not Active | Not Active | Not Active | Not Active | Not Active | Not Active | Not Active | Not Active | – | – |
| CC(C)(C#N)c1cc(Cn2cncn2)cc(C(C)(C)C#N)c1 [ANASTROZOLE] | Not Active | Not Active | Not Active | Not Active | Not Active | Not Active | Not Active | Not Active | Not Active | Not Active | – | – |
| COc1cc(/C=C/C(=O)O)ccc1O [FERULATE] | Not Active | Not Active | Not Active | Not Active | Not Active | Not Active | Not Active | Not Active | Not Active | Not Active | – | – |
| COc1cc([C@@H]2c3cc4c(cc3[C@H](O)[C@H]3COC(=O)[C@H]23)OCO4)cc(OC)c1OC [PODOFILOX] | Not Active | Not Active | Not Active | Not Active | Not Active | Not Active | Not Active | Not Active | Not Active | Not Active | – | – |
| C[N+](C)(C)CCOC(N)=O.[Cl-] [CARBACHOL] | Not Active | Not Active | Not Active | Not Active | Not Active | Not Active | Not Active | Not Active | Not Active | Not Active | – | – |
| CC1(COc2ccc(CC3SC(=O)NC3=O)cc2)CCCCC1 (stereo unspecified) [CIGLITAZONE] | Not Active | Not Active | Not Active | Not Active | Not Active | Not Active | Not Active | Not Active | Not Active | Not Active | – | – |
| Oc1ncnc2[nH]ncc12 [ALLOPURINOL] | Not Active | Not Active | Not Active | Not Active | Not Active | Not Active | Not Active | Not Active | Not Active | Not Active | – | – |
| Cc1cc(C(C)(C)C)c(O)c(C)c1CC1=NCCN1 [OXYMETAZOLINE] | Not Active | Not Active | Not Active | Not Active | Not Active | Not Active | Not Active | Not Active | Not Active | Not Active | – | – |
| CC(C)Cn1cnc2c(N)nc3ccccc3c21 [IMIQUIMOD] | Not Active | Not Active | Not Active | Not Active | Not Active | Not Active | Not Active | – | Not Active | Not Active | 5.32 | 2.99 |
| NS(=O)(=O)c1cc(C(=O)O)c(NCc2ccco2)cc1Cl [FUROSEMIDE] | Not Active | Not Active | Not Active | Not Active | Not Active | Not Active | Not Active | Not Active | Not Active | Not Active | – | – |
